Source: the NIST ThermoML archive (doi:10.1021/je4001894)
± gives the expanded uncertainty stated by the source.

Assay: activity coefficient (dimensionless); of the first substance listed, at infinite dilution; xn = mol fraction of the nth substance listed
Settings: 101 kPa, Liquid, Chromatography, x1 = 0

Row | Structure (SMILES) | activity coefficient (323.15 K) | activity coefficient (333.15 K) | activity coefficient (343.15 K)
1 | CCCCO [butan-1-ol] + CCCC[N+]1(C)CCCC1.O=S(=O)([N-]S(=O)(=O)C(F)(F)F)C(F)(F)F | 2.59 ± 0.18 | 2.32 ± 0.16 | 2.08 ± 0.14
2 | CCCCO [butan-1-ol] + CCC[N+]1(C)CCCC1.O=S(=O)([N-]S(=O)(=O)C(F)(F)F)C(F)(F)F | 2.79 ± 0.19 | 2.35 ± 0.16 | 2.27 ± 0.15
3 | CCC(C)=O [butanone] + CCCC[N+]1(C)CCCC1.O=S(=O)([N-]S(=O)(=O)C(F)(F)F)C(F)(F)F | 0.54 ± 0.04 | 0.5 ± 0.04 | 0.46 ± 0.04
4 | CCC(C)=O [butanone] + CCC[N+]1(C)CCCC1.O=S(=O)([N-]S(=O)(=O)C(F)(F)F)C(F)(F)F | 0.57 ± 0.04 | 0.58 ± 0.04 | 0.64 ± 0.04
5 | C1CCCCCC1 [cycloheptane] + CCCC[N+]1(C)CCCC1.O=S(=O)([N-]S(=O)(=O)C(F)(F)F)C(F)(F)F | 23.9 ± 1.6 | 32 ± 2.2 | 41.7 ± 2.9
6 | C1CCCCCC1 [cycloheptane] + CCC[N+]1(C)CCCC1.O=S(=O)([N-]S(=O)(=O)C(F)(F)F)C(F)(F)F | 29.1 ± 2 | 43 ± 2.9 | 54.7 ± 3.8
7 | C1CCCCC1 [cyclohexane] + CCCC[N+]1(C)CCCC1.O=S(=O)([N-]S(=O)(=O)C(F)(F)F)C(F)(F)F | 8.74 ± 0.6 | 7.96 ± 0.54 | 7.59 ± 0.52
8 | C1CCCCC1 [cyclohexane] + CCC[N+]1(C)CCCC1.O=S(=O)([N-]S(=O)(=O)C(F)(F)F)C(F)(F)F | 10.2 ± 0.7 | 9.53 ± 0.65 | 8.53 ± 0.58
9 | CCCCCCCCCC [decane] + CCCC[N+]1(C)CCCC1.O=S(=O)([N-]S(=O)(=O)C(F)(F)F)C(F)(F)F | 54.3 ± 3.7 | 49 ± 3.4 | 44.2 ± 3
10 | CCCCCCCCCC [decane] + CCC[N+]1(C)CCCC1.O=S(=O)([N-]S(=O)(=O)C(F)(F)F)C(F)(F)F | 74.7 ± 5.1 | 65.7 ± 4.5 | 60 ± 4.1
11 | ClCCl [dichloromethane] + CCCC[N+]1(C)CCCC1.O=S(=O)([N-]S(=O)(=O)C(F)(F)F)C(F)(F)F | 0.66 ± 0.05 | 0.7 ± 0.05 | 0.73 ± 0.05
12 | ClCCl [dichloromethane] + CCC[N+]1(C)CCCC1.O=S(=O)([N-]S(=O)(=O)C(F)(F)F)C(F)(F)F | 0.66 ± 0.05 | 0.72 ± 0.05 | 0.78 ± 0.05
13 | CCOCC [diethyl ether] + CCCC[N+]1(C)CCCC1.O=S(=O)([N-]S(=O)(=O)C(F)(F)F)C(F)(F)F | 2.53 ± 0.17 | 2.54 ± 0.17 | 2.6 ± 0.18
14 | CCOCC [diethyl ether] + CCC[N+]1(C)CCCC1.O=S(=O)([N-]S(=O)(=O)C(F)(F)F)C(F)(F)F | 2.62 ± 0.18 | 2.7 ± 0.18 | 2.75 ± 0.19
15 | CC(C)OC(C)C [diisopropyl ether] + CCCC[N+]1(C)CCCC1.O=S(=O)([N-]S(=O)(=O)C(F)(F)F)C(F)(F)F | 5.19 ± 0.35 | 5.28 ± 0.36 | 5.4 ± 0.37
16 | CC(C)OC(C)C [diisopropyl ether] + CCC[N+]1(C)CCCC1.O=S(=O)([N-]S(=O)(=O)C(F)(F)F)C(F)(F)F | 5.88 ± 0.4 | 5.75 ± 0.39 | 5.53 ± 0.38
17 | CCCCCCCCCCCC [dodecane] + CCCC[N+]1(C)CCCC1.O=S(=O)([N-]S(=O)(=O)C(F)(F)F)C(F)(F)F | 105 ± 7.2 | 93.8 ± 6.4 | 83 ± 5.7
18 | CCO [ethanol] + CCCC[N+]1(C)CCCC1.O=S(=O)([N-]S(=O)(=O)C(F)(F)F)C(F)(F)F | 1.73 ± 0.12 | 1.57 ± 0.1 | 1.43 ± 0.09
19 | CCO [ethanol] + CCC[N+]1(C)CCCC1.O=S(=O)([N-]S(=O)(=O)C(F)(F)F)C(F)(F)F | 1.75 ± 0.12 | 1.57 ± 0.1 | 1.49 ± 0.1
20 | CCc1ccccc1 [ethylbenzene] + CCCC[N+]1(C)CCCC1.O=S(=O)([N-]S(=O)(=O)C(F)(F)F)C(F)(F)F | 1.83 ± 0.12 | 1.85 ± 0.12 | 1.87 ± 0.13
21 | CCCCCCC [heptane] + CCCC[N+]1(C)CCCC1.O=S(=O)([N-]S(=O)(=O)C(F)(F)F)C(F)(F)F | 19.7 ± 1.4 | 18.4 ± 1.3 | 17.5 ± 1.2
22 | CCCCCCC [heptane] + CCC[N+]1(C)CCCC1.O=S(=O)([N-]S(=O)(=O)C(F)(F)F)C(F)(F)F | 24 ± 1.6 | 23.1 ± 1.6 | 22.3 ± 1.5
23 | C=CCCCC [hex-1-ene] + CCCC[N+]1(C)CCCC1.O=S(=O)([N-]S(=O)(=O)C(F)(F)F)C(F)(F)F | 7.51 ± 0.51 | 7.21 ± 0.49 | 7.12 ± 0.49
